System: MCP-1 production
Experiment: LPS induced MCP-1 production from human whole blood
Assay type: cell-based
Settings: LPS 200 ng/mL, 18-24 hours, read-out: mean pIC50, LPS induced MCP-1 production (converted)
Experimental: Activation of monocytic cells by agonists of toll-like receptors such as bacterial lipopolysaccharide (LPS) results in production of key inflammatory mediators including MCP-1. Such pathways are widely considered to be central to the pathophysiology of a range of auto-immune and inflammatory disorders.
Blood is collected in a tube containing Sodium heparin (Leo Pharmaceuticals) (10 units of heparin/mL of blood). 96-well compound plates containing 0.5 μL test sample (compound) in 100% DMSO were prepared (two replicates on account of donor variability). 130 μL of whole blood was dispensed into each well of the 96-well compound plates and incubated for 30 min at 37° C., 5% CO2. 10 μL of lipopolysaccharide (from Salmonella typhosa; L6386) made up in PBS (200 ng/mL final assay concentration) was added to each well of the compound plates. The plates were then placed in the humidified primary cell incubator for 18-24 hours at 37° C., 5% CO2. 140 μL of PBS was added to all wells of the compound plates containing blood. The plates were then sealed and centrifuged for 10 mins at 2500 rpm (r.t). […] 150 μL of 2×MSD Read Buffer T (stock 4×MSD Read Buffer T was diluted 50:50 with de-ionised water) was then added to each well and the plates read on the MSD Sector Imager 6000. Concentration response curves for each compound were generated from the data and an IC50 value was calculated.

- IC50: > 20 µM
SMILES: Cc1cc(-c2nc(C(=O)O)cn2Cc2ccccc2)cn(C)c1=O [Example 34, 1-benzyl-2-(1,5-dimethyl-6-oxo-1,6-dihydropyridin-3-yl)-1H-imidazole-4-carboxylic acid]
